Legend:
Experiment in all cases: viability relative to DMSO control (fraction); higher = less drug effect (more viable cells)
Details in all cases: 48 h
Birinapant = compound: CC[C@H](NC(=O)[C@H](C)NC)C(=O)N1C[C@@H](O)C[C@H]1Cc1c(-c2[nH]c3cc(F)ccc3c2C[C@@H]2C[C@H](O)CN2C(=O)[C@H](CC)NC(=O)[C@H](C)NC)[nH]c2cc(F)ccc12 [Birinapant]
Procedure, shortened: (§1)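 Viability is given as CellTiter-Glo luminescence relative to the median of 16 inner DMSO wells. Fresh or cryopreserved primary mononuclear tumour cells from blood, bone marrow (both Ficoll-isolated) or processed lymph node were plated at 4 × 10^4 cells per well in 384-well plates against five pre-plated compound concentrations, one well each. Incubation lasted 48 h at 37 °C and 5% CO2 in RPMI-1640 with penicillin/streptomycin, L-glutamine and human serum.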

Pentostatin = compound: OC[C@H]1O[C@@H](n2cnc3c2N=CNC[C@H]3O)C[C@@H]1O [Pentostatin]
Procedure, shortened: as §1

ERK5-IN-1 = compound: CCOc1cc(C(=O)N2CCC(N3CCN(C)CC3)CC2)ccc1Nc1ncc2c(n1)N(C1CCCC1)c1ccccc1C(=O)N2C [ERK5-IN-1]
Procedure, shortened: as §1

Iniparib = compound: NC(=O)c1ccc(I)c([N+](=O)[O-])c1 [Iniparib]
Procedure, shortened: as §1

MLN-120B = compound: COc1c(Cl)cc2c([nH]c3cnccc32)c1NC(=O)c1cccnc1C [MLN-120B]
Procedure, shortened: as §1

Panobinostat = compound: Cc1[nH]c2ccccc2c1CCNCc1ccc(/C=C/C(=O)NO)cc1 [Panobinostat]
Procedure, shortened: as §1

Pralatrexate = compound: C#CCC(Cc1cnc2nc(N)nc(N)c2n1)c1ccc(C(=O)N[C@@H](CCC(=O)O)C(=O)O)cc1 [Pralatrexate]
Procedure, shortened: as §1

Ribociclib = compound: CN(C)C(=O)c1cc2cnc(Nc3ccc(N4CCNCC4)cn3)nc2n1C1CCCC1 [Ribociclib]
Procedure, shortened: as §1

Cladribine = compound: Nc1nc(Cl)nc2c1ncn2[C@H]1C[C@H](O)[C@@H](CO)O1 [Cladribine]
Procedure, shortened: as §1

Vorinostat = compound: O=C(CCCCCCC(=O)Nc1ccccc1)NO [Vorinostat]
Procedure, shortened: as §1

Idarubicin = compound: CC(=O)[C@]1(O)Cc2c(O)c3c(c(O)c2[C@@H](O[C@H]2C[C@H](N)[C@H](O)[C@H](C)O2)C1)C(=O)c1ccccc1C3=O [Idarubicin]
Procedure, shortened: as §1

Obatoclax mesylate = compound: COC1=CC(c2cc3ccccc3[nH]2)=N/C1=C\c1[nH]c(C)cc1C [Obatoclax mesylate]
Procedure, shortened: as §1

AZD7762 = compound: NC(=O)Nc1cc(-c2cccc(F)c2)sc1C(=O)N[C@H]1CCCNC1 [AZD7762]
Procedure, shortened: as §1

TMP269 = compound: O=C(NCC1(c2nc(-c3ccccc3)cs2)CCOCC1)c1cccc(-c2noc(C(F)(F)F)n2)c1 [TMP269]
Procedure, shortened: as §1

Imatinib = compound: Cc1ccc(NC(=O)c2ccc(CN3CCN(C)CC3)cc2)cc1Nc1nccc(-c2cccnc2)n1 [Imatinib]
Procedure, shortened: as §1

Test System: primary ALL patient cells (S088)
- viability (Birinapant; 0.0008 µM): 0.577
- viability (Birinapant; 0.004 µM): 0.477
- viability (Birinapant; 0.02 µM): 0.379
- viability (Birinapant; 0.1 µM): 0.316
- viability (Birinapant; 0.5 µM): 0.229
- viability (Pentostatin; 0.03 µM): 0.809
- viability (Pentostatin; 0.15 µM): 0.725
- viability (Pentostatin; 0.75 µM): 0.786
- viability (Pentostatin; 3.75 µM): 0.669
- viability (Pentostatin; 18.76 µM): 0.706
- viability (ERK5-IN-1; 0.024 µM): 0.841
- viability (ERK5-IN-1; 0.12 µM): 0.851
- viability (ERK5-IN-1; 0.6 µM): 0.472
- viability (ERK5-IN-1; 3 µM): 0.39
- viability (ERK5-IN-1; 15 µM): 0.114
- viability (Iniparib; 0.024 µM): 1.15
- viability (Iniparib; 0.12 µM): 1.09
- viability (Iniparib; 0.6 µM): 1.04
- viability (Iniparib; 3 µM): 1
- viability (Iniparib; 15 µM): 0.898
- viability (MLN-120B; 0.024 µM): 0.199
- viability (MLN-120B; 0.12 µM): 0.231
- viability (MLN-120B; 0.6 µM): 0.233
- viability (MLN-120B; 3 µM): 0.248
- viability (MLN-120B; 15 µM): 0.24
- viability (Panobinostat; 0.00064 µM): 0.699
- viability (Panobinostat; 0.0032 µM): 0.266
- viability (Panobinostat; 0.016 µM): 0.115
- viability (Panobinostat; 0.08 µM): 0.0993
- viability (Panobinostat; 0.4 µM): 0.0891
- viability (Pralatrexate; 0.024 µM): 1.07
- viability (Pralatrexate; 0.12 µM): 0.937
- viability (Pralatrexate; 0.6 µM): 0.927
- viability (Pralatrexate; 3 µM): 0.991
- viability (Pralatrexate; 15 µM): 0.917
- viability (Ribociclib; 0.024 µM): 0.713
- viability (Ribociclib; 0.12 µM): 0.679
- viability (Ribociclib; 0.6 µM): 0.621
- viability (Ribociclib; 3 µM): 0.487
- viability (Ribociclib; 15 µM): 0.357
- viability (Cladribine; 0.024 µM): 0.397
- viability (Cladribine; 0.12 µM): 0.178
- viability (Cladribine; 0.6 µM): 0.122
- viability (Cladribine; 3 µM): 0.0996
- viability (Cladribine; 15 µM): 0.0732
- viability (Vorinostat; 0.016 µM): 0.991
- viability (Vorinostat; 0.08 µM): 0.777
- viability (Vorinostat; 0.4 µM): 0.366
- viability (Vorinostat; 2 µM): 0.157
- viability (Vorinostat; 10 µM): 0.109
- viability (Idarubicin; 0.024 µM): 0.341
- viability (Idarubicin; 0.12 µM): 0.0818
- viability (Idarubicin; 0.6 µM): 0.0274
- viability (Idarubicin; 3 µM): 0.0177
- viability (Idarubicin; 15 µM): 0.0163
- viability (Obatoclax mesylate; 0.024 µM): 0.977
- viability (Obatoclax mesylate; 0.12 µM): 0.804
- viability (Obatoclax mesylate; 0.6 µM): 0.582
- viability (Obatoclax mesylate; 3 µM): 0.262
- viability (Obatoclax mesylate; 15 µM): 0.0738
- viability (AZD7762; 0.024 µM): 0.488
- viability (AZD7762; 0.12 µM): 0.38
- viability (AZD7762; 0.6 µM): 0.256
- viability (AZD7762; 3 µM): 0.227
- viability (AZD7762; 15 µM): 0.189
- viability (TMP269; 0.024 µM): 0.709
- viability (TMP269; 0.12 µM): 0.619
- viability (TMP269; 0.6 µM): 0.674
- viability (TMP269; 3 µM): 0.674
- viability (TMP269; 15 µM): 0.729
- viability (Imatinib; 0.016 µM): 1.08
- viability (Imatinib; 0.4 µM): 1.04
- viability (Imatinib; 10 µM): 1.24

Test System: primary AML patient cells (S019)
- viability (Birinapant; 0.0008 µM): 1.04
- viability (Birinapant; 0.004 µM): 1.04
- viability (Birinapant; 0.02 µM): 0.718
- viability (Birinapant; 0.1 µM): 0.365
- viability (Birinapant; 0.5 µM): 0.288
- viability (Pentostatin; 0.03 µM): 1.04
- viability (Pentostatin; 0.15 µM): 0.985
- viability (Pentostatin; 0.75 µM): 1.02
- viability (Pentostatin; 3.75 µM): 1.01
- viability (Pentostatin; 18.76 µM): 0.857
- viability (ERK5-IN-1; 0.024 µM): 0.986
- viability (ERK5-IN-1; 0.12 µM): 1
- viability (ERK5-IN-1; 0.6 µM): 0.906
- viability (ERK5-IN-1; 3 µM): 0.766
- viability (ERK5-IN-1; 15 µM): 0.357
- viability (Iniparib; 0.024 µM): 1.35
- viability (Iniparib; 0.12 µM): 1.19
- viability (Iniparib; 0.6 µM): 1.06
- viability (Iniparib; 3 µM): 1.22
- viability (Iniparib; 15 µM): 1.04
- viability (MLN-120B; 0.024 µM): 0.961
- viability (MLN-120B; 0.12 µM): 0.986
- viability (MLN-120B; 0.6 µM): 0.936
- viability (MLN-120B; 3 µM): 0.984
- viability (MLN-120B; 15 µM): 0.885
- viability (Panobinostat; 0.00064 µM): 1.02
- viability (Panobinostat; 0.0032 µM): 0.94
- viability (Panobinostat; 0.016 µM): 0.56
- viability (Panobinostat; 0.08 µM): 0.462
- viability (Panobinostat; 0.4 µM): 0.465
- viability (Pralatrexate; 0.024 µM): 1.04
- viability (Pralatrexate; 0.12 µM): 1.01
- viability (Pralatrexate; 0.6 µM): 1.05
- viability (Pralatrexate; 3 µM): 0.971
- viability (Pralatrexate; 15 µM): 1.01
- viability (Ribociclib; 0.024 µM): 1.17
- viability (Ribociclib; 0.12 µM): 1.02
- viability (Ribociclib; 0.6 µM): 1.07
- viability (Ribociclib; 3 µM): 0.925
- viability (Ribociclib; 15 µM): 0.626
- viability (Cladribine; 0.024 µM): 0.336
- viability (Cladribine; 0.12 µM): 0.25
- viability (Cladribine; 0.6 µM): 0.221
- viability (Cladribine; 3 µM): 0.219
- viability (Cladribine; 15 µM): 0.197
- viability (Vorinostat; 0.016 µM): 1.17
- viability (Vorinostat; 0.08 µM): 1.1
- viability (Vorinostat; 0.4 µM): 0.76
- viability (Vorinostat; 2 µM): 0.899
- viability (Vorinostat; 10 µM): 0.315
- viability (Idarubicin; 0.024 µM): 0.45
- viability (Idarubicin; 0.12 µM): 0.157
- viability (Idarubicin; 0.6 µM): 0.0819
- viability (Idarubicin; 3 µM): 0.0808
- viability (Idarubicin; 15 µM): 0.0541
- viability (Obatoclax mesylate; 0.024 µM): 1.13
- viability (Obatoclax mesylate; 0.12 µM): 1.08
- viability (Obatoclax mesylate; 0.6 µM): 0.971
- viability (Obatoclax mesylate; 3 µM): 0.83
- viability (Obatoclax mesylate; 15 µM): 0.472
- viability (AZD7762; 0.024 µM): 0.832
- viability (AZD7762; 0.12 µM): 0.892
- viability (AZD7762; 0.6 µM): 0.766
- viability (AZD7762; 3 µM): 0.873
- viability (AZD7762; 15 µM): 0.767
- viability (TMP269; 0.024 µM): 1.01
- viability (TMP269; 0.12 µM): 1.1
- viability (TMP269; 0.6 µM): 1.07
- viability (TMP269; 3 µM): 1.06
- viability (TMP269; 15 µM): 1.04
- viability (Imatinib; 0.016 µM): 1.48
- viability (Imatinib; 0.08 µM): 1.29
- viability (Imatinib; 0.4 µM): 1.43
- viability (Imatinib; 2 µM): 1.26

Source: the supplement of paper PMC10733146
